Assay results: patent US4851450A, “Compounds for inhibition of platelet activating factor activity” (priority 1987, dated 1989)
Where two headings read alike, the source gives them in different places.

What was measured:
[1] = test system: PAF aggregation of washed rabbit platelets; test: Inhibition of PAF (AGEPC) activity / disaggregation during AGEPC-induced aggregation of washed rabbit platelets; assay type: cell-based; conditions: for IC50: Oryctolagus cuniculus, Platelet
washed rabbit platelets = test: Aggregation of washed rabbit platelets (procedure of Demopoulos et al.); assay type: cell-based; conditions: for EC50: Oryctolagus cuniculus, Platelet, final concentrations; for cytotoxicity of the aggregation: washed rabbit platelets
rabbit platelets = test: [3H]Serotonin secretion by platelets; assay type: cell-based; conditions: Oryctolagus cuniculus, Platelet; 2 min; final concentrations; read-out: 50% secretion of 3H-serotonin at 2 min
Method: The procedure is as follows: PAF and the various test lipid compounds are assessed for platelet stimulatory activity as briefly described. Rabbit platelets, internally labeled with [^3 H]serotonin (New England Nuclear; 28.2 Ci/mmol) are washed on Ficoll-Paque cushions and adjusted to 2.5×10^8 platelets/ml of Tyrode's buffer, pH 7.2. Appropriate dilutions of PAF or the test lipids are prepared in pyrogen-free 0.15M NaCl containing 2.5 mg/ml of crystallized bovine serum albumin; the albumin is required for dispersion of PAF and the test lipids. Four microliters of the various dilutions of PAF and test lipids are added to 200 μl of prewarmed (37° C.) [^3 H]serotonin-labeled platelets in plastic test tubes and the reaction mixture was incubated for 60 s at which time 20 μl of cold 1.5 m formaldehyde were added to stop the reactions. The tubes were immediately cooled to 0° C., centrifuged at 2200×g for 10 min and the supernatants were assayed for percentage of [^3 H]serotonin secretion relative to 100% controls prepared by the addition of Triton X-100 to 200 μl of the starting platelet suspension. The data were plotted linearly and 1 unit of activity was defined as the amount of PAF or test lipids required to effect 50% serotonin release. […]

[2] = test system: Tetrahymena pyriformis cells; test: Glycogenolysis in intact Tetrahymena pyriformis cells; assay type: cell-based; conditions: glucose measured, FIG. 3
Method: The results were obtained using the following procedure: Tetrahymena pyriformis cells, in log phase, are spun down, washed with saline and resuspended in Tyrodes solution. After 30 min of incubation, the compounds III and IV in bovine serum albumin solution are added and aliquots taken at different time intervals. The aliquots are treated for 2 min in boiled water, sonicated and glucose measured by the method of Bergmeyer et al. (Methods of Enzymatic Analysis, 3, 1196 (Academic Press, N.Y. 1974), the teachings of which are incorporated herein.

rats = test: Systolic blood pressure in rats (procedure of Tselepis et al.); assay type: in vivo, rat
Excerpt: Biochem. Physiol. 87C(1),41-46 (1987), the teachings of which are incorporated herein.

[3] = Table, final molar concentration, for 2 × 10^-10 M AGEPC, read-out: IC50
[4] = against 2×10^-10 M PAF, final concentrations, read-out: IC50 for 2×10^-10 M PAF

IC50 [1, 3] [µM] | IC50 [1, 4] [µM] | EC50 (washed rabbit platelets) [µM] | EC50 (rabbit platelets) [µM] | Compound | effect on aggregation when added during AGEPC-induced aggregation ([1]; added during AGEPC (PAF)-induced aggregation, FIG. 4) | cytotoxicity of the aggregation (washed rabbit platelets) | glycogenolysis [2] | fall in systolic blood pressure (SBP) (rats)
 |  |  |  | thrombin | no effect on platelet aggregation |  |  | 
16 | 16 | 0.2 | 2 | CCCCCCCCC(O)C(O)CCCCCCCCOCC(O)CO (stereo not shown) [Compound III, 9,10-Dihydroxy-Octadecyl Glycerol] |  | non-cytotoxic |  | 
 |  |  |  | 1-O-alkyl-2-acetyl-sn-glyceryl-3-phosphorylcholine [PAF] |  |  | dramatic influence on glycogenolysis | fall in the systolic blood pressure
28 | 28 | 2 | 9 | CCCCCCCCC(OC(C)=O)C(CCCCCCCCOCC(COC(C)=O)OC(C)=O)OC(C)=O (stereo not shown) [Compound IV, Tetra-Acetyl-9,10-Dihydroxy-Octadecyl Glycerol] |  | non-cytotoxic |  | 
